Here are results for five compounds from ChEMBL document CHEMBL1134179, “Equilibrium and kinetics studies of transnitrosation between S-nitrosothiols and thiols” (Bioorg Med Chem Lett, 2001).

The nature of the data set: pKa value was determined. Type of data set: physicochemical.
For `CCOC(=O)[C@@H](N)CS`, the pKa – broadly, the negative logarithm of the acid dissociation constant – was 6.5.
For `CC(=O)N[C@@H](CS)C(=O)O` [ACETYLCYSTEINE] the value was 9.52; for `N[C@@H](CCC(=O)N[C@@H](CS)C(=O)NCC(=O)O)C(=O)O` [GLUTATHIONE], 8.75.
The figure for `CC(=O)NC(C(=O)O)C(C)(C)S` (stereo not given) [N-ACETYL PENICILLAMINE] is 9.9; for `CC(C)(S)[C@@H](N)C(=O)O` [PENICILLAMINE] it is 8.53.
